How the values were obtained:
Nrf2 pathway = details: ref [34]; cited from earlier work
Source text: PANa triggers the buildup of reactive oxygen species (ROS) within cells, resulting in oxidative stress and subsequent cellular injury. Antioxidant enzymes are essential for alleviating oxidative stress.

FASN and ACC1 = details: ref [39]; cited from earlier work
Source text: Lipid metabolism, including lipolysis, lipogenesis, and lipid transport, determines the lipid levels in the body. FASN and ACC are two significant lipid synthetases that play a key role in lipid accumulation. PANa primarily influences hepatic lipogenesis through the modulation of FASN and ACC1 expression. […] CPT1 and ATGL are closely linked to lipolysis and are crucial for regulating lipid levels. ...

pancreatic lipase = experiment: Pancreatic lipase activity inhibition; assay type: biochemical; details: compared with orlistat (positive control); 4-nitrophenyl palmitate substrate, lipase 1.2 mg/mL, peptide 100 μM, Tris-HCl pH 8.0, 37 °C, absorbance 405 nm, three parallel wells
Procedure: A working substrate solution consisting of 4-nitrophenyl palmitate dissolved in sodium acetate solution (containing 1% Triton-X 100, 100 mL, 5 mM, pH 5.0) was prepared. Enzyme powder was dissolved in Tris-HCl buffer (pH 8.0, 37 °C). This mixture was incubated at 4 °C for 2 h before centrifugation at 5000 r/min for 5 min, yielding the supernatant used to prepare a pancreatic lipase solution of 1.2 mg/mL. Orlistat at a concentration of 1 mg/mL in Tris-HCl buffer (pH 8.0; 37 °C) was prepared alongside DMSO to reach a concentration of 350 μg/mL peptide solution. The peptide solution of 100 μM was prepared with Tris-HCl buffer (pH = 8.0, 37 °C). The absorbance was measured at 405 nm, and the inhibition rate was measured in parallel with three holes due to the methodology of Franco et al..

[1] = test system: fatty acid synthase (FASN); experiment: Western blot FASN; assay type: cell-based; details: 100 μM peptide 4 h, then 350 µM PANa 24 h, HepG2, Western blot
Procedure: (§1) After treatment, cells were washed with pre-chilled PBS and lysed with ice-cold lysis buffer for 30 min. The supernatant was collected after centrifugation at 12,000× g for 10 min and stored at −80 °C. Protein concentration was determined using a BCA protein assay kit. Equal amounts of protein (20–40 µg) were subjected to 10% sodium dodecyl sulfate-polyacrylamide gel electrophoresis (SDS-PAGE) and transferred to PVDF membranes (Polyvinylidene Fluoride, Merck, Darmstadt, Germany). Non-specific binding sites were blocked with 5% bovine serum albumin (BSA) solution at room temperature for 1 h, followed by incubation with the primary antibody at 4 °C overnight. After washing with TBST (3 times, 10 min/time), the membrane was incubated with the secondary antibody at room temperature for 1 h. Following further washing with TBST (3 times, 10 min/time), antibody signals were detected using a Western blot development system. The dilution ratios for the internal reference protein, vascular endothelial injury-related proteins, and oxidative stress-related pathway proteins were prepared according to the manufacturer’s instructions.

[2] = test system: proteins associated with lipid metabolism; experiment: Western blot, proteins associated with lipid metabolism overall; assay type: cell-based; details: 100 μM peptide 4 h, then 350 µM PANa 24 h, HepG2, Western blot
Procedure: as §1

total cholesterol (TCHO) = experiment: Total cholesterol (TCHO) level in HepG2; assay type: cell-based; details: 100 μM peptide 4 h, then 350 µM PANa 24 h, HepG2
Procedure: (§2) After incubation, cells were treated with 100 μM of peptides for 4 h. After removing the media, PANa was added for 24 h of incubation. The levels of catalase (CAT), superoxide dismutase (SOD), glutathione peroxidase (GSH-Px), malondialdehyde (MDA), triacylglycerol (TG), total cholesterol (TCHO), low-density lipoprotein cholesterol (LDL-C), and high-density lipoprotein cholesterol (HDL-C) in the supernatant were determined according to the kit instructions.

catalase (CAT) = experiment: Catalase (CAT) activity in HepG2; assay type: cell-based; details: 100 μM peptide 4 h, then 350 µM PANa 24 h, HepG2
Procedure: as §2

malondialdehyde (MDA) = experiment: Malondialdehyde (MDA) level in HepG2; assay type: cell-based; details: 100 μM peptide 4 h, then 350 µM PANa 24 h, HepG2
Procedure: as §2

[3] = test system: phosphorylated ACC1 (p-ACC1); experiment: Western blot p-ACC1; assay type: cell-based; details: 100 μM peptide 4 h, then 350 µM PANa 24 h, HepG2, Western blot
Procedure: as §1

[4] = test system: glutathione peroxidase (GSH-Px); experiment: Glutathione peroxidase (GSH-Px) activity in HepG2; assay type: cell-based; details: 100 μM peptide 4 h, then 350 µM PANa 24 h, HepG2
Procedure: as §2

HepG2 cells [5] = experiment: CCK-8 proliferation of HepG2 with peptide alone; assay type: cell-based; details: concentrations below 200 µM, 24 h, CCK-8, n = 3
Procedure: HepG2 cells were cultured in DMEM supplemented with penicillin at a concentration of 100 U/mL, streptomycin at 100 μg/mL, and fetal bovine serum at a volume ratio of 10% under conditions of 37 °C and 5% CO2. A total of 2 ×10^4 cells per well were seeded into a 96-well plate for overnight culture. The upper layer of medium was carefully aspirated, and 200 μL of different concentrations of oligopeptide solution (50 μM, 100 μM, 200 μM) prepared with cell complete medium was added to each well. Twenty-four hours later, the proliferation rate of the cells was measured according to the instructions of the CCK-8 kit, and the appropriate concentration of oligopeptide was screened out.

triacylglycerol (TG) = experiment: Triacylglycerol (TG) level in HepG2; assay type: cell-based; details: 100 μM peptide 4 h, then 350 µM PANa 24 h, HepG2
Procedure: as §2

Nrf2 = experiment: Western blot Nrf2; assay type: cell-based; details: 100 μM peptide 4 h, then 350 µM PANa 24 h, HepG2, Western blot
Procedure: as §1

HO-1 = experiment: Western blot HO-1; assay type: cell-based; details: 100 μM peptide 4 h, then 350 µM PANa 24 h, HepG2, Western blot
Procedure: as §1

HepG2 cells [6] = experiment: Cell viability of PANa-induced HepG2 (CCK-8); assay type: cell-based; details: 100 μM peptide 4 h, then 350 µM PANa 24 h, **** p < 0.0001 vs PANa group
Procedure: A total of 2 × 10^4 cells/well were inoculated in 96-well plates for culture at 37 °C and 5% CO2. Following this period, the cells received treatment with 200 μL medium containing 100 μM LR-7, KA-8, or PG-7 for 4 h before adding 350 μM PANa to each well. After incubation for an additional 24 h, the cell proliferation rates were assessed using the CCK-8 assay protocols.

[7] = test system: low-density lipoprotein cholesterol (LDL-C); experiment: LDL-C level in HepG2; assay type: cell-based; details: 100 μM peptide 4 h, then 350 µM PANa 24 h, HepG2
Procedure: as §2

[8] = test system: superoxide dismutase (SOD); experiment: Superoxide dismutase (SOD) activity in HepG2; assay type: cell-based; details: 100 μM peptide 4 h, then 350 µM PANa 24 h
Procedure: as §2

[9] = test system: high-density lipoprotein cholesterol (HDL-C); experiment: HDL-C level in HepG2; assay type: cell-based; details: 100 μM peptide 4 h, then 350 µM PANa 24 h, HepG2
Procedure: as §2

NQO1 = experiment: Western blot NQO1; assay type: cell-based; details: 100 μM peptide 4 h, then 350 µM PANa 24 h, HepG2, Western blot
Procedure: as §1

HUVECs = details: earlier work, ref [21]; cited from earlier work
Source text: Harpadon nehereus, a nutrient-rich marine species indigenous to the Indo-Pacific region, remains underexploited despite its significant collagen content (18–22% wet weight). Harpadon nehereus serves as an economical source that is rich in protein and trace elements. Its proteins and derived peptides offer numerous health benefits including immune enhancement, blood pressure reduction, cardiovascular protection, and inflammation mitigation. In prior research, we successfully isolated three novel peptides LALFVPR (LR-7), KLHDEEVA (KA-8), and PSRILYG (PG-7) from the enzymatic hydrol ... || Studies have confirmed that oxidative stress and lipid metabolism disorders are significant factors in the occurrence and development of hyperlipidemia Dietary intervention is a crucial auxiliary strategy for the management of hyperlipidemia. Collagen peptides have been extensively used as a nutritional intervention in the treatment of various diseases due to their notable antioxidant, anti-inflammatory, and hypolipidemic activities. […] Anoth ...

Compound	hepatic steatosis, oxidative stress, inflammatory cell infiltration and fibrosis via Nrf2 pathway (Nrf2 pathway)	expression levels of FASN and ACC1 / lipid accumulation (FASN and ACC1)	inhibition of pancreatic lipase activity (pancreatic lipase)	FASN expression vs PANa group [1]	abnormal expression of proteins associated with lipid metabolism by PANa (FASN, ATGL, CPT1, p-AMPKα) [2]	TCHO, effect on PANa-induced increase (total cholesterol (TCHO))	CAT activity, reversal of PANa-induced reduction (catalase (CAT))	MDA level (malondialdehyde (MDA))	p-ACC1 level vs PANa group [3]	GSH-Px activity, reversal of PANa-induced reduction [4]	effect on apoptosis of HepG2 cells (HepG2 cells [5])	TG, effect on PANa-induced increase (triacylglycerol (TG))	Nrf2 protein level (Nrf2)	HO-1 protein level (HO-1)	cell viability of PANa-exposed HepG2 (HepG2 cells [6])	LDL-C, effect on PANa-induced increase [7]	SOD activity, reversal of PANa-induced reduction [8]	HDL-C, effect on PANa-induced decrease [9]	NQO1 protein level (NQO1)	effect on angiotensin II-induced dysfunctions within HUVECs (HUVECs)
COc1ccc([C@@H]2CC(=O)c3c(O)cc(O)cc3O2)cc1O [hesperetin]	reduce hepatic steatosis, alleviate oxidative stress, decrease inflammatory cell infiltration, and mitigate fibrosis through activation of the Nrf2 pathway	–	–	–	–	–	–	–	–	–	–	–	–	–	–	–	–	–	–	–
Oc1ccc2c(c1)OCO2 [sesamol (SEM), sesamol]	–	influence lipid accumulation by decreasing the expression levels of FASN and ACC1	–	–	–	–	–	–	–	–	–	–	–	–	–	–	–	–	–	–
KLHDEEVA [KA-8, peptide from Harpadon nehereus bone collagen enzymatic hydrolysates]	–	–	comparable results to orlistat	FASN expression decreased	significantly reversed	notably reversed the PANa-induced increases	effectively reversed the reduction	significantly decreased the MDA levels	p-ACC1 levels increased significantly	effectively reversed the reduction	no effect on the apoptosis of HepG2 cells	notably reversed the PANa-induced increases	significant increases in the levels	significant increases in the levels	notably enhanced the cell viability	notably reversed the PANa-induced increases	effectively reversed the reduction	notably reversed	significant increases in the levels	–
PSRILYG [PG-7, peptide from Harpadon nehereus bone collagen enzymatic hydrolysates]	–	–	less effective than orlistat	FASN expression decreased	significantly reversed	notably reversed the PANa-induced increases	effectively reversed the reduction	significantly decreased the MDA levels	p-ACC1 levels increased significantly	effectively reversed the reduction	no effect on the apoptosis of HepG2 cells	notably reversed the PANa-induced increases	significant increases in the levels	significant increases in the levels	notably enhanced the cell viability	notably reversed the PANa-induced increases	effectively reversed the reduction	notably reversed	significant increases in the levels	improve angiotensin II-induced dysfunctions within HUVECs

Reference: paper PMC11943913, “Peptides from Harpadon nehereus Bone Ameliorate Sodium Palmitate-Induced HepG2 Lipotoxicity by Regulating Oxidative Stress and Lipid Metabolism” (Marine Drugs, 2025)
